In patent US5296591A, “Trifluoromethylketone derivatives, processes for preparation thereof and use thereof” (Fujisawa Pharmaceutical Co., Ltd., priority 1990, dated 1994):

How the values were obtained:
[1] = target: T1, human sputum elastase (HSE) (Homo sapiens, UniProt P08246); test: Protease inhibition assay (in vitro), human sputum elastase; type: biochemical; details: substrate methoxysuccinyl-(Ala)2-Pro-Val-p-nitroanilide, 30 min, room temperature, pH 7.5
T1 construct: HSE was obtained from Elastin Products Company Inc., Mo., U.S.A; purchased Elastin Products Company Inc; host or cells: human sputum (from the enzyme's name)
T1 sequence (P08246 30-267): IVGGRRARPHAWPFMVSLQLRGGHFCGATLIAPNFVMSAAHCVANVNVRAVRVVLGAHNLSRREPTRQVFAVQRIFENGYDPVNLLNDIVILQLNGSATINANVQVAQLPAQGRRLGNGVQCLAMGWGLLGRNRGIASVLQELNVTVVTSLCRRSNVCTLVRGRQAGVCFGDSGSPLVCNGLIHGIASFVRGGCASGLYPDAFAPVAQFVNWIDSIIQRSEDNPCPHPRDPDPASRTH
Protocol: (§1) A buffer used throughout the assay was 0.1M HEPES (4-(2-hydroxyethyl)-1-piperazineethanesulfonic acid) containing 0.5M NaCl, pH 7.5. Twenty-five microliters of 2 mM methoxysuccinyl-(Ala)2 -Pro-Val-p-nitroanilide (100 mM of dimethyl sulfoxide solution were diluted in the buffer) and 50 μl of sample (10 μl of sample in organic solvent was diluted 5-fold in the buffer) were mixed in wells of 96 well-microliter plate. An absorbance of the mixture in wavelength at 415 nm was measured by a microplate reader (Corona Electric Co., Ibaraki, Japan). After the measurement, 25 μl of 6 μg/ml human sputum elastase (HSE) was added and the mixture was allowed to stand for 30 minutes at room temperature. Then, the absorbance at 415 nm was measured. Percent inhibition by drug was determined by 100×(1-"r" inhibitor present/"r" inhibitor absent), where "r" is absorbance after 30 minutes incubation minus absorbance before enzyme addition. Effect of inhibitors against porcine pancreas elastase (Type IV, 5 μg/ml final) was assayed similarly using N-succinyl-(Ala)3 -p-nitroanilide. HSE was obtained from Elastin Products Company Inc., Mo., U.S.A. All other substrates and protease were purchased from Sigma Chemicals Co.

[2] = target: T2, porcine pancreas elastase (Type IV) (Sus scrofa, UniProt P00772); test: Protease inhibition assay (in vitro), porcine pancreas elastase; type: biochemical; details: IC50 Porcine pancreas elastase, substrate N-succinyl-(Ala)3-p-nitroanilide, enzyme 5 μg/ml final
T2 construct: purchased Sigma Chemicals Co; host or cells: porcine pancreas (from the enzyme's name)
T2 sequence (P00772 27-266): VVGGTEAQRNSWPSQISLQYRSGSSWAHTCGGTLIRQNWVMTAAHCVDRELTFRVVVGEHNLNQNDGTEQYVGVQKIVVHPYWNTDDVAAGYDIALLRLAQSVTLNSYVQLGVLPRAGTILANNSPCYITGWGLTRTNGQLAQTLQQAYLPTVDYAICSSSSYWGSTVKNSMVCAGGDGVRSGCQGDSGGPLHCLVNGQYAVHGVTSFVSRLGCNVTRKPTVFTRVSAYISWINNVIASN
Protocol: as §1

[3] = tested on: human sputum elastase-induced lung hemorrhage in hamsters; test: Elastase-induced pulmonary damage (lung hemorrhage) in hamsters; type: in vivo, hamster; details: 5 min predose; for Hemorrhage (OD541 nm): BAL hemoglobin 3 h after elastase
Protocol: Hamsters under pentobarbital anesthesia were used. Saline or saline-containing human sputum elastase was instilled intratracheally via a small incision in the ventral neck region using 1-ml syringe with a 27-gauge needle. After 3 hours, animals were sacrificed by CO2 asphyxiation, each animal's trachea was reexposed. The lungs were then laveged using a 2.5-ml aliquot of saline and then withdrawing the saline, yielding a final volume of approximately 1.5 ml bronchoalveolar lavage (BAC) fluid from each animal.
The cells of BAL fluid were collected by centrifugation and were then diluted with distilled water to disrupt, and the hemoglobin contents determined spectrophotometrically at 541 nm.
Test drugs were dissolved in saline or methyl cellulose, and instilled intratracheally in the same manner as used to instill elastase, at 5 minutes before instillation of elastase.

[4] = tested on: human sputum elastase induced paw edema in C57BL mice; test: Human sputum elastase induced paw edema in mice; type: in vivo, mouse; details: for Thickness of footpad: 15 min before HSE 20 μg/site, 2 h after HSE
Protocol: Male C57BL mice at the age of 7-8 weeks were obtained from Japan Clear Inc,.
Human sputum elastase (HSE) was purchased from Elastin Products Company, Inc,. The test drug was administered subcutaneously, and 15 minutes later, HSE was injected into the right hind footpad at the dosage of 20 μg/site, and saline into the left hind footpad as the control. After 2 hours of HSE injection, the paw edema was measured with the dial thickness gage, and the difference of the thickness between right and left hind footpads was calculated.

[5] = tested on: PPE-induced emphysema in golden Syrian hamsters; test: Experimentally (porcine pancreatic elastase) induced emphysema in hamsters; type: in vivo, hamster; details: for Cst (quasi static lung compliance) / VC (vital capacity): 3 weeks after PPE
Protocol: Male golden Syrian hamsters, weighing approximately 120 g, were obtained from Japan SLC Inc,.
Porcine pancreatic elastase (PPE) was purchased from Elastin Products Company, Inc,. Dialferin was purchased from Japan Roche Inc,.
Hamsters were anesthetized intraperitoneally with Pentobarbital. The compound of Example 19 was dissolved in saline. Both prior art compounds A and B were suspended in 0.5% methyl cellulose. The drugs were instilled intratracheally through the oral cavity, 5 minutes before 100 μg/site of PPE in 0.2 ml of saline instillation. Three weeks after PPE instillation, the hamsters were anesthetized with Pentobarbital. Respiratory mechanics were studied in supine hamsters using a whole body, constant-volume, variable pressure plethysmograph to measue volume. A water-filled esophageal catheter was used to estimate pleural pressure. Quasi-static deflation pressure-volume (P-V) curves were obtained by intraperitoneally administered Dialferin to suppress spontaneous breathing inflating the lungs to a transpulmonary pressure (PL) of 30 cm H2 O, permitting slow deflation to a PL of 0 cm H2 O and gently aspirating to a PL of -20 cm H2 O . Quasi-static lung compliance (Cst) was defined as the slope of the steep portion of the deflation P-V curve in the mid-volume range. Vital capacity was defined as the difference in lung volume between TLC25 (volume at PL=25 cm H2 O) and RV-20 (volume at PL=-20 cm H2 O).

[6] = 1 μg/site intratracheal 5 min before PPE 100 μg/site
[7] = 10 μg/site intratracheal 5 min before PPE 100 μg/site
[8] = 100 μg/site intratracheal 5 min before PPE 100 μg/site

SMILES: CC(C)C(NC(=O)[C@@H]1CCCN1C(=O)[C@@H](NC(=O)c1ccc(C(=O)NCC(=O)O)cc1)C(C)C)C(=O)C(F)(F)F (mixture of isomers) [Example 19, 3(RS)-[[4-(carboxymethylaminocarbonyl)phenylcarbonyl]-L-valyl-L-prolyl]amino-1,1,1-trifluoro-4-methyl-2-oxopentane]
- IC50 [1]: 0.68 µM
- IC50 [2]: 3 µM
- % inhibition of elastase-induced lung hemorrhage ([3]; 1 μg/site intratracheal): 10.8%
- Hemorrhage (OD541 nm) ([3]; 1 μg/site intratracheal): 11.59 ± 1.40 OD541 nm
- % inhibition of elastase-induced lung hemorrhage ([3]; 10 μg/site intratracheal): 93.1%
- Hemorrhage (OD541 nm) ([3]; 10 μg/site intratracheal): 1.663 ± 0.690 OD541 nm
- % inhibition of elastase-induced lung hemorrhage ([3]; 100 μg/site intratracheal): 105.2%
- Hemorrhage (OD541 nm) ([3]; 100 μg/site intratracheal): 0.2141 ± 0.020 OD541 nm
- ED50 elastase-induced lung hemorrhage ([3]; intratracheal): 2.4 μg/site
- % Inhibition of paw edema ([4]; 1 mg/kg subcutaneous): 6.4%
- Thickness of footpad ([4]; 1 mg/kg subcutaneous): 43.8 ± 5.67 × 10^-2 mm
- % Inhibition of paw edema ([4]; 10 mg/kg subcutaneous): 20.9%
- Thickness of footpad ([4]; 10 mg/kg subcutaneous): 37.0 ± 13.41 × 10^-2 mm
- % Inhibition of paw edema ([4]; 100 mg/kg subcutaneous): 42.3%
- Thickness of footpad ([4]; 100 mg/kg subcutaneous): 27.0 ± 4.66 × 10^-2 mm
- Cst (%) Inhibition ([5]; 1 μg/site intratracheal): 15%
- VC (%) Inhibition ([5]; 1 μg/site intratracheal): 12%
- Cst (quasi static lung compliance) [5, 6]: 1.39 ± 0.05 ml/cmH2 O
- VC (vital capacity) [5, 6]: 7.0 ± 0.1 mL
- Cst (%) Inhibition ([5]; 10 μg/site intratracheal): 84%
- VC (%) Inhibition ([5]; 10 μg/site intratracheal): 65%
- Cst (quasi static lung compliance) [5, 7]: 0.70 ± 0.04 ml/cmH2 O
- VC (vital capacity) [5, 7]: 5.8 ± 0.1 mL
- Cst (%) Inhibition ([5]; 100 μg/site intratracheal): 100%
- VC (%) Inhibition ([5]; 100 μg/site intratracheal): 97%
- Cst (quasi static lung compliance) [5, 8]: 0.53 ± 0.02 ml/cmH2 O
- VC (vital capacity) [5, 8]: 5.0 ± 0.1 mL
- Potency compared with prior art compounds, considering Cst and VC values (in words) ([5]; hamster, in vivo): superior to the prior art compounds A and B
- Effect of pretreatment on PPE-induced increases in lung mechanics (in words) ([5]; intratracheal pretreatment, 1-100 μg/site): prevented the development of PPE-induced increases in lung mechanics in a dose dependent manner
